# Data from patent US8318708B2, “Use of vitamin D receptor agonists, ligands, and precursors to treat pancreatic fibrosis” (Salk Institute for Biological Studies, priority 2007, dated 2012).
# How the values were obtained:
# HSCs = conditions: rat HSCs 24 h; LPS 15 ng/ml, TGFβ 2 ng/ml, calcitriol 10 nM; control = 1
# Procedure: (§1) For Illumina microarray analysis, Illumina TotalPrep RNA Amplification Kit (Ambion; Catalog # IL1791) was used with the manufacturer's instructions for the RNA amplification. […] Essentially, biotinylated cRNA was prepared according to the manufacturer's directions starting with 200 ng total RNA. Hybridization to the Illumina Sentrix RatRef-12 v.1 and Mouse RefSeq version 2 Expression BeadChips (Illumina, Inc., San Diego, Calif.), washing and scanning were performed according to the Illumina BeadStation 500× manual (revision C). […] RNA is isolated using Trizol and the quality/integrity of the total RNA verified using a Bioanalyzer (Agilent).
# (§2) Microarray experiments were repeated two times with RNA from two experiments where HSCs were isolated from two different rats and for each condition triplicate samples were used. The “Detection Score” was used to determine expression using the Illumina platform. It is a statistical measure in the BeadStudio software (version 1.5.0.34), which is computed based on the Z-value of a gene relative to the Z-value of the negative controls. The Illumina data were adjusted (“normalized”) using a cubic spline function. […] The expression difference score, DiffScore, takes into account background noise and sample variability. […] Illumina expression arrays utilize gene-specific 50-mer oligonucleotide probes with an average of 30 replicates of each probe bead per individual array.
# Two different HSCs from different rats were used for the lumina microarray analysis. […] Values are expressed as fold change relative to control cells treated with vehicle alone.
# primary HSCs = test: Illumina array: TGFβ1-treated primary rat HSCs with vitamin D3 (Table 4); conditions: rat HSCs 24 h; TGFβ1 100 pM, vitamin D3 1 nM
# Procedure: as §1, §2
# The Illumina platform described above was used to identify genome-wide effects of vitamin D3-activated VDR on TGFβ signaling in primary rat HSCs. Isolated primary HSCs were cultured on plastic tissue culture plates for 40 hours prior to treatment with or without vitamin D3 (1 nM) in the presence or absence of TGFβ1 (100 pM) for 24 hours. Cells were then harvested, total RNA extracted, and biotin labeled cRNA was prepared for hybridization to an Illumina Rat RefSeq version 1 genome array. […] The data generated from these arrays was processed using Illumina BeadStudio software to identify gene expression changes between the different samples. The vitamin D3 mediated changes on TGFβ1 signaling were identified by comparing TGFβ1 and co-treated TGFβ1/vitamin D3 samples.
# VDR [1] = target: T1, VDR (Rattus norvegicus, UniProt P13053); test: Western blot of VDR in sinusoidal endothelial cells (SECs); type: cell-based; parameters: endogenous in cells; host or cells: primary rat hepatic stellate cells, sinusoidal endothelial cells, Kupffer cells and hepatocytes (Sprague-Dawley rats); conditions: FIG. 10A
# T1 sequence (P13053 1-423): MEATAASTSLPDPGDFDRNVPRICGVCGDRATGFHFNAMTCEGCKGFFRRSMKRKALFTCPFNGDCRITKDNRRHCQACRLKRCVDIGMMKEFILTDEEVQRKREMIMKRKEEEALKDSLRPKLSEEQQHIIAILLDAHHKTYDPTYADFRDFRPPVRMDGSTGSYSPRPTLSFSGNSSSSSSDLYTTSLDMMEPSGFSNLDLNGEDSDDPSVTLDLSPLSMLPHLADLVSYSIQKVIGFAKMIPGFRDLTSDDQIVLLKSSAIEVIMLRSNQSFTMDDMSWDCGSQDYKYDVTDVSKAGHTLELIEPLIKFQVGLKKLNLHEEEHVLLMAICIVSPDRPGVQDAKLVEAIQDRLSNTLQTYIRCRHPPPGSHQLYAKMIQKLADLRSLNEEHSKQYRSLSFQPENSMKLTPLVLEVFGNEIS
# From the text: (§3) Hepatic sinusoidal endothelial cells (SECs) and Kupffer cells (KCs) were elutriated from rat liver and maintained in cell culture.
# hepatocytes = test: Illumina Sentrix arrays: hepatocytes treated with TGF-β1 and calcitriol (Tables 9 and 10); type: cell-based; conditions: rat hepatocytes, TGF-β1 2 ng/mL, 24 h
# Procedure: Cells were cultured and treated as described in Example 14. Gene expression was determined using Illumina Sentrix expression arrays, rat version 1, according to the manufacturer's instructions.
# Triplicate biologic replicates were assayed for each treatment.
# VDR [2] = test: Western blot of VDR in hepatocytes treated with TGF-β1; type: cell-based, rat; human; conditions: TGF-β1 2 ng/mL, 24 hours, FIG. 14
# Procedure: Primary rat hepatocytes were isolated from Sprague-Dawley rats by collagenase in situ perfusion and plated on collagen in Williams E medium. The immortalized human hepatocyte (IHH) cell line was cultured in DMEM/F12+GlutaMax with insulin and dexamethasone. Primary rat hepatocytes or immortalized human hepatocytes were cultured for two days, then subsequently treated with TGF-β1 (2 ng/mL human, recombinant expressed in CHO cells from Sigma-Aldrich, # T7039) for 24 hours and compared to untreated controls. Protein was prepared from harvested cells and western blotting for VDR was accomplished using a specific anti-VDR antibody (anti-human VDR antibody from R&D systems CAT # PP-H4537-00 and rat anti-VDR monoclonal antibody from Chemocon International CAT # MAB1360). Recombinant human VDR protein was included as a positive control.
# VDR [3] = target: T1, VDR; test: Western blot of VDR in Kupffer cells (KCs); type: cell-based; parameters: endogenous in cells; host or cells: primary rat hepatic stellate cells, sinusoidal endothelial cells, Kupffer cells and hepatocytes (Sprague-Dawley rats); conditions: FIG. 10B
# From the text: as §3
substance,measurement,setting,value
TGF-β1: transforming growth factor beta 1; human recombinant from Sigma-Aldrich T7039,Ccl5 gene expression,HSCs,0.957 fold change
same,Ccl12 gene expression,HSCs,1.167 fold change
same,Ccl20 gene expression,HSCs,0.999 fold change
same,Col1a1 gene expression,HSCs,3.014 fold change
same,Col1a2 gene expression,HSCs,2.256 fold change
same,Col3a1 gene expression,HSCs,1.878 fold change
same,Col5a1 gene expression,HSCs,2.322 fold change
same,Col5a2 gene expression,HSCs,1.583 fold change
same,Col6a3 gene expression,HSCs,1.611 fold change
same,Col8a1 gene expression,HSCs,2.240 fold change
same,Csf2 gene expression,HSCs,0.803 fold change
same,Ctgf gene expression,HSCs,1.919 fold change
same,Cx3cl1 gene expression,HSCs,0.864 fold change
same,Cxcl5 gene expression,HSCs,0.971 fold change
same,Cxcl9 gene expression,HSCs,0.875 fold change
same,Cxcl11 gene expression,HSCs,1.05 fold change
same,Icam1 gene expression,HSCs,1.371 fold change
same,Il1a gene expression,HSCs,0.517 fold change
same,Il1b gene expression,HSCs,0.322 fold change
same,Il6 gene expression,HSCs,0.791 fold change
same,Il10 gene expression,HSCs,0.837 fold change
same,Mmp7 gene expression,HSCs,1.692 fold change
same,Mmp10 gene expression,HSCs,1.856 fold change
same,Mmp13 gene expression,HSCs,1.342 fold change
same,Smad2 gene expression,HSCs,1.381 fold change
same,Smad3 gene expression,HSCs,1.116 fold change
same,Smad4 gene expression,HSCs,1.325 fold change
same,Tgfb1 gene expression,HSCs,1.502 fold change
same,Tgfbr1 gene expression,HSCs,1.317 fold change
same,Timp1 gene expression,HSCs,1.026 fold change
same,Timp2 gene expression,HSCs,1.823 fold change
same,Tlr2 gene expression,HSCs,1.092 fold change
same,Tlr4 gene expression,HSCs,1.349 fold change
same,Tnf gene expression,HSCs,1.078 fold change
same,Tnfrsf5 gene expression,HSCs,1.339 fold change
same,Tnfrsf14 gene expression,HSCs,1.373 fold change
same,Vcam1 gene expression,HSCs,1.482 fold change
same,Mmp10 gene change,primary HSCs,↓
same,Mmp13 gene change,primary HSCs,N/C
same,VDR protein expression,VDR [1],induced
same,Abcb4 gene expression,hepatocytes,96.93
same,Abcg2 gene expression,hepatocytes,913.91
same,Abcg4 gene expression,hepatocytes,95.82
same,Ccl3 gene expression,hepatocytes,540.53
same,Ccl4 gene expression,hepatocytes,380.06
same,Ccl7 gene expression,hepatocytes,1303.89
same,Ccl12 gene expression,hepatocytes,368.02
same,Cd44 gene expression,hepatocytes,680.16
same,Cxcr4 gene expression,hepatocytes,164.68
same,Cyp1a2 gene expression,hepatocytes,135.53
same,Cyp2d1 gene expression,hepatocytes,147.68
same,Cyp2d5 gene expression,hepatocytes,338.34
same,Cyp3a23/3a1 gene expression,hepatocytes,380.28
same,Gstm1 gene expression,hepatocytes,2230.15
same,Gstm2 gene expression,hepatocytes,715.15
same,Gsto1 gene expression,hepatocytes,1364.06
same,Il1a gene expression,hepatocytes,675.41
same,Il1b gene expression,hepatocytes,1551.37
same,Jak2 gene expression,hepatocytes,669.28
same,Mmp9 gene expression,hepatocytes,159.27
same,Nos2 gene expression,hepatocytes,90.7
same,Slc7a6os gene expression,hepatocytes,241.22
same,Slc25a4 gene expression,hepatocytes,671.16
same,Slc25a19 gene expression,hepatocytes,195.9
same,Slc28a1 gene expression,hepatocytes,50.32
same,Slc28a2 gene expression,hepatocytes,157.29
same,Slc35a4 gene expression,hepatocytes,157.88
same,Slc37a4 gene expression,hepatocytes,246.55
same,Tlr2 gene expression,hepatocytes,978.98
same,Tlr7 gene expression,hepatocytes,110.03
same,Ugt2b5 gene expression,hepatocytes,155.32
same,cyp2a1 gene expression,hepatocytes,216.95
same,cyp2c22 gene expression,hepatocytes,2009.34
same,cyp4a10 gene expression,hepatocytes,91.71
same,cyp24a1 gene expression,hepatocytes,56.9
same,slc25a1 gene expression,hepatocytes,1375.94
same,slc25a5 gene expression,hepatocytes,2038.43
same,slc26a1 gene expression,hepatocytes,181.21
same,slc39a1 gene expression,hepatocytes,489.71
same,Increase in VDR expression (western blot),VDR [2],at least 5 fold
same,VDR protein expression,VDR [3],induced
